# Test results reported in patent US20230135671A1, “USE OF BIOMARKERS IN THE TREATMENT OF FIBROTIC CONDITIONS” (Boehringer Ingelheim International GmbH, priority 2020, published 2023).
# Legend:
# [1] = clinical trials (i.a. CAPACITY and ASCEND); cited from earlier work
# [2] = tested on: normal human lung fibroblasts; conditions: in vitro; cited from earlier work
# [3] = tested on: primary human lung fibroblasts from IPF patients; conditions: cited from earlier work
# IPF patients = conditions: multiple clinical trials; cited from earlier work
# [4] = tested on: 14 Nintedanib-responsive genes; assay: GSVA of the 14-gene set, SENSCIS trial, SSc-ILD patients; assay type: in vivo, human; conditions: at both visits (24 and 52 weeks), no significant change with Placebo
# Excerpt: (§1) Gene set variance analysis (GSVA): The Bioconductor package Gene Set Variance Analysis version 1.3.2 was applied to score each sample individually for the activity of the 14 genes (LTF, CEACAM6, CTSG, OLFM4, MMP8, CEACAM8, DEFA4, OLR1, SHISA4, ABCA13, EMID1, LMOD1, MPO, and PRTN3). The GSVA function was executed with an expression matrix of the log2 Transcripts Per Million (TPM) with a pseudocount of 0.01 added to each value, the list of 14 genes, and the parameter mx.diff set to true. Statistical differences between the GSVA scores between the different treatment groups were tested using a simple linear model and moderated t-statistics computed by the limma package using an empirical Bayes shrinkage method (Law et al., Genome Biol. 2014 Feb 3;15(2):R29.). Identification of genes altered upon Nintedanib treatment in patients with IPF
# Following identification of the 14 Nintedanib-responsive genes in the INMARK trial in the context of IPF, expression of these genes was assessed in two additional clinical trials. […] In both of these trials, whole blood samples were prospectively collected and the expression of the 14 said genes was retrospectively analyzed by whole-transcriptome RNA-sequencing. […] Similar effects were observed when the fold changes in expression were calculated in a per-patient fashion (FIG. 8).
# [5] = tested on: lung fibroblasts from patients with IPF; conditions: cited from earlier work
# [6] = tested on: 14 Nintedanib-responsive genes; assay: Gene set variation analysis (GSVA) of the 14-gene set, INMARK trial, IPF patients; assay type: in vivo, human; conditions: V5 (12 weeks) vs V2, 150 mg b.i.d., p = 1.35E-05, no significant change with Placebo
# Excerpt: as §1
# [7] = tested on: protein-coding genes in whole blood; assay: Whole-transcriptome RNA sequencing, differentially expressed genes, INMARK trial, IPF patients; assay type: in vivo, human
# Experimental: Blood was sampled into PAXgene RNA tubes (PreAnalytix) and RNA was extracted using the PAXgene Blood RNA kit. Quantity of total RNA was determined by direct absorbance measurement at 260 nm using a spectrophotometer. RNA sequencing libraries were prepared using the Illumina TruSeq Stranded Total RNA Library Prep Kit with Ribo-Zero Globin. Briefly, following removal of ribosomal RNA and globin-encoding mRNA, cleaved RNA fragments were reversely transcribed into first strand cDNA using reverse transcriptase and random primers followed by second strand cDNA synthesis using DNA Polymerase I and RNase H. Strand origin was kept by using Uracil instead of Thymin in the nucleotide mix for […] cDNA synthesis. Following 3′-adenylation and index adapter ligation, cDNA products were purified and enriched by PCR to create the final cDNA library. Library quantity was determined using the Quant-it Pico Green dsDNA reagent and quality was checked by analyzing cDNA fragment size using an Agilent Bioanalyzer 2100 device. Following library dilution to 5 nM, samples were pooled for cluster generation. […]
# Quality control: The raw data (single-end read sequences of the captured cDNA fragments) obtained for each sample were assessed for quality using FASTQC v0.11.2. For a successful gene expression analysis of a sample, approximately 50 million reads were required. Reads were mapped to the human reference genome hg38 (GRCh38 Ensembl v. 84) using STAR v2.5.2a. The mapped reads were assessed using RNA-SeQC v1.1.8, whereby mapping statistics (e.g. unique mapping rate, number of detected genes, proportion of reads mapping to protein coding genes) provided the final criteria to decide on usability of the data.
# Gene expression intensities were represented as either read counts or TPM values and calculated based on Ensembl v84 gene annotations using subread featureCounts and RSEM version 1.2.31 respectively. Further steps included the use of bamUtil version 1.0.11 and samtools version 1.1 for intermediate calculations such as indexing of bam-files and duplicate read marking. […]
# [8] = tested on: 14 Nintedanib-responsive genes; assay: Whole blood RNA-sequencing of the 14 genes, SENSCIS trial, SSc-ILD patients; assay type: in vivo, human; conditions: 24 weeks (V70) and, in some instances, 52 weeks (V90), not following Placebo
# Experimental: Blood was sampled into PAXgene RNA tubes (PreAnalytix) and RNA was extracted using the PAXgene Blood RNA kit. Quantity of total RNA was determined by direct absorbance measurement at 260 nm using a spectrophotometer. RNA sequencing libraries were prepared using the Illumina TruSeq Stranded Total RNA Library Prep Kit with Ribo-Zero Globin. […] Library quantity was determined using the Quant-it Pico Green dsDNA reagent and quality was checked by analyzing cDNA fragment size using an Agilent Bioanalyzer 2100 device. […]
# Normalization factors to scale the samples based on the raw library sizes were calculated using the weighted trimmed mean of M-values (TMM) method using the default parameters of edgeR’s calcNormFactors function (Robinson and Oshlack, Genome Biol. 2010;11(3):R25.). After these pre-processing steps, the log2 counts per million along with associated weights for each observation were then calculated based on the normalized library sizes from the previous step using limma’s voom function (Law et al., Genome Biol. 2014 Feb 3;15(2):R29.). […] Estimates for the mean log2 fold change between follow-up visit at week 12 (wk12) and baseline (bl) in each treatment arm was calculated as
# Following identification of the 14 Nintedanib-responsive genes in the INMARK trial in the context of IPF, expression of these genes was assessed in two additional clinical trials. […]
# mouse models of IPF = conditions: cited from earlier work
# [9] = adj. p-value <0.05, baseline vs week 12
Compound,decline of the forced vital capacity (FVC) lung function [1],PDGFR-a and-β activation and proliferation of normal human lung fibroblasts [2],TGF-β-induced fibroblast to myofibroblast transformation [3],annual loss of lung function (IPF patients),change in GSVA score of the 14-gene set [4],PDGF-or FGF-2-stimulated migration of lung fibroblasts [5],change in GSVA score of the 14-gene set [6],"number of significantly changed genes that were downregulated [7, 9]","number of significantly changed genes that were upregulated [7, 9]","number of protein-coding genes with significant differences in expression pre- vs post-treatment ([7]; adj. p-value <0.05, baseline vs week 12, 150 mg b.i.d.)",expression of most of the 14 genes [8],total lung collagen (mouse models of IPF; IPF mouse models),lymphocyte and neutrophil counts in the bronchoalveolar lavage fluid (mouse models of IPF; two different mouse models of IPF)
"Cc1ccc(=O)n(-c2ccccc2)c1 [Pirfenidone, 5-methyl-1-phenyl-2(1H)-pyridone]",efficacy in reducing,,,,,,,,,,,,
"COC(=O)c1ccc2c(c1)NC(=O)/C2=C(\Nc1ccc(N(C)C(=O)CN2CCN(C)CC2)cc1)c1ccccc1 [Nintedanib, 3-Z-[1-(4-(N-((4-methyl-piperazin-1-yl)-methylcarbonyl)-N-methyl-amino)-anilino)-1-phenyl-methylene]-6-methoxycarbonyl-2-indolinone]",,inhibit,inhibited,reduce,significant reduction,attenuated,highly significant reduction,18,one,19,downregulated,significant reductions,significant reductions
